Experimental data taken from patent US20020019527A1 (priority 2000, published 2002).
Structures can show the parent of a compound that is named as a salt. Where two headings read alike, the source gives them in different places.

Target: T1, Farnesyltransferase (FTase) (Bos taurus, UniProt P29702+P49355)
T1 construct: precipitation from a beef brain homogenate; from tissue; host or cells: bovine brain
Assay: Farnesyltransferase inhibition (scintillation proximity assay, [3H]-FPP / biotin-K-ras peptide)
Type: biochemical, bovine
Protocol: Farnesyltransferase (FTase) or geranylgeranyltransferase I (GGTase I) fractions were isolated from bovine brains and purified by a series of methods which separate FTase from GGTase I and GGTase I from GGTase II. The methods involved a partial purification of all three enzymes by precipitation from a beef brain homogenate with 30% to 50% saturated […] followed by chromatography on DEAE Sepharose. […] The catalytic purity of each enzyme was assayed separately with substrate acceptor proteins specific for that enzyme. After quickly freezing in liquid nitrogen, the various prenyl transferases were stored at −80° C.
The quenched reactions stood for 1 hour before analysis in a Packard TopCount scintillation counter. Purified compounds were dissolved in 100% ethanol and diluted 10-fold into the assay.

[1] = compound at 10^−6 M, bovine FTase, 37° C., 30 minutes

T1 sequence (P49355 whole entry, one chain of several): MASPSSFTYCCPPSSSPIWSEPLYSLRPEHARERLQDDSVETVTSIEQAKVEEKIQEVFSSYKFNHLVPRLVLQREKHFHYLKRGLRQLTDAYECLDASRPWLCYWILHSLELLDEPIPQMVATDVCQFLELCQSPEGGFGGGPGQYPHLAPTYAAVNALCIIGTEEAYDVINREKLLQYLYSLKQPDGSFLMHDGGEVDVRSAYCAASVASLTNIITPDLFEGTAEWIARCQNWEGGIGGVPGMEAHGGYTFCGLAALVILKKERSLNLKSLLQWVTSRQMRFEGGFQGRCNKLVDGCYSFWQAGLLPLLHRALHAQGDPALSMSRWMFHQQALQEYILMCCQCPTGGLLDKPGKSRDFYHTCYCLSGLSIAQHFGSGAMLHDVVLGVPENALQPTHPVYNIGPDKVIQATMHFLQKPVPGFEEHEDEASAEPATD

Structure (SMILES) | inhibition at 1 µM [1] [%] | further results
Cn1cncc1CN(Cc1ccc(C#N)cc1)C(=O)c1ccc(C#N)c(-c2cccc3ccccc23)c1 [Example 191, 4-cyano-N-(4-cyanobenzyl)-N-((1-methy-1H-imidazol-5-yl)methyl)-3-(1-naphthyl)benzamide] | – | % Inhibition at 10^−6M [1]: 99%
Cc1cccc(COC(c2ccc(C#N)c(-c3ccccc3C)c2)c2cncn2C)c1.Cl (stereo not shown) [Example 128] | – | % Inhibition at 10^−6M: 94%
Cc1ccc(-c2cc(C(OCc3ccccc3)c3cncn3C)ccc2C#N)cc1 (stereo not shown) [Example 93, 5-((benzyloxy)(1-methyl-1H-imidazol-5-yl)methyl)-4′-methyl(1,1′-biphenyl)-2-carbonitrile hydrochloride] | 58 | –
CCN(Cc1ccc([N+](=O)[O-])cc1)C(c1ccc(C#N)c(-c2ccccc2C)c1)c1cncn1C (stereo not shown) [Example 27, 5-((ethyl(4-nitrobenzyl)amino)(1-methyl-1H-imidazol-5-yl)methyl)-2′-methyl(1,1′-biphenyl)-2-carbonitrile dihydrochloride] | 100 | –
Cn1cncc1C(OCc1ccc(F)c(C(F)(F)F)c1)c1ccc(C#N)c(-c2ccccc2C(F)(F)F)c1 (stereo not shown) [Example 250, 5-(((4-fluoro-3-(trifluoromethyl)benzyl)oxy)(1-methyl-1H-imidazol-5-yl)methyl)-2′-(trifluoromethyl)(1,1′-biphenyl)-2-carbonitrile hydrochloride] | 99 | –
Cc1ccccc1-c1cc(C(OCc2noc(-c3ccccc3)n2)c2cncn2C)ccc1C#N (stereo not shown) [Example 171, 2′-methyl-5-((1-methyl-1H-imidazol-5-yl)((5-phenyl-1,2,4-oxadiazol-3-yl)methoxy)methyl)(1,1′-biphenyl)-2-carbonitrile hydrochloride] | 75 | –
Cc1ccccc1-c1cc(C(OCc2ncc(C(F)(F)F)cc2Cl)c2cncn2C)ccc1C#N (stereo not shown) [Example 182, 5-(((3-chloro-5-(trifluoromethyl)-2-pyridinyl)methoxy)(1-methyl-1H-imidazol-5-yl)methyl)-2′-methyl(1,1′-biphenyl)-2-carbonitrile hydrochloride] | 89 | –
Cn1cncc1C(OCc1ncc(C(F)(F)F)cc1Cl)c1ccc(C#N)c(-c2cccc3cccnc23)c1 (stereo not shown) [Example 246, 4-(((3-chloro-5-(trifluoromethyl)-2-pyridinyl)methoxy)(1-methyl-1H-imidazol-5-yl)methyl)-2-(8-quinolinyl)benzonitrile] | 90 | –
COC(=O)c1ccc(COC(c2ccc(C#N)c(-c3ccccc3C(F)(F)F)c2)c2cncn2C)nc1 (stereo not shown) [Example 277, methyl 6-(((6-cyano-2′-(trifluoromethyl)(1,1′-biphenyl)-3-yl)(1-methyl-1H-imidazol-5-yl)methoxy)methyl)nicotinate dihydrochloride] | 95 | –
Cc1ccccc1-c1cc(C(OCc2ccc(C(C)(C)C)cc2)c2cncn2C)ccc1C#N (stereo not shown) [Example 115, 5-(((4-(tert-butyl)benzyl)oxy)(1-methyl-1H-imidazol-5-yl)methyl)-2′-methyl(1,1′-biphenyl)-2-carbonitrile hydrochloride] | 89 | –
Cc1ccccc1-c1cc(CN(Cc2ccccc2)Cc2cncn2C)ccc1C#N [Example 32, 5-((benzyl((1-methyl-1H-imidazol-5-yl)methyl)amino)methyl)-2′-methyl(1,1′-biphenyl)-2-carbonitrile dihydrochloride] | 93 | –
Cn1cncc1C(OCc1ccc(C#N)cc1)c1ccc(C#N)c(-c2ccccc2C(F)(F)F)c1 (stereo not shown) [Example 201, 5-(((4-cyanobenzyl)oxy)(1-methyl-1H-imidazol-5-yl)methyl)-2′-(trifluoromethyl)(1,1′-biphenyl)-2-carbonitrile hydrochloride] | 99 | –
Cn1cncc1C(OCc1ccc(C#N)cn1)c1ccc(C#N)c(-c2cccc(Cl)c2Cl)c1 (stereo not shown) [Example 280, 6-(((2′,3′-dichloro-6-cyano(1,1′-biphenyl)-3-yl)(1-methyl-1H-imidazol-5-yl)methoxy)methyl)nicotinonitrile dihydrochloride] | 98 | –
Cc1ccccc1-c1cc(C(c2cncn2C)N2CCN(c3cccc(OC(F)(F)F)c3)C(=O)C2)ccc1C#N.Cl.Cl (stereo not shown) [Example 15] | – | % Inhibition at 10^−6M: 100%
Cn1cncc1C(OCc1ccc(C#N)cn1)c1ccc(C#N)c(-c2cccc3cccnc23)c1 (stereo not shown) [Example 247, 6-(((4-cyano-3-(8-quinolinyl)phenyl)(1-methyl-1H-imidazol-5-yl)methoxy)methyl)nicotinonitrile trihydrochloride] | 95 | –
Cc1ccccc1-c1cc(C(O)c2cncs2)ccc1C#N (stereo not shown) [Example 214, 5-(hydroxy(1,3-thiazol-5-yl)methyl)-2′-methyl(1,1′-biphenyl)-2-carbonitrile] | 20 | –
Cn1cncc1C(NCc1ccc(C(=O)O)cc1)c1ccc(C#N)c(-c2cccc3ccccc23)c1 (stereo not shown) [Example 39, lithium 4-((((4-cyano-3-(1-naphthyl)phenyl)(1-methyl-1H-imidazol-5-yl)methyl)amino)methyl)benzoate] | 100 | –

Further lines, with some results ahead:

inhibition at 1 µM [1] [%] | Structure (SMILES) | further results
100 | COC(=O)c1ccc(COC(c2ccc(C#N)c(-c3cccc4ccccc34)c2)c2cncn2C)cc1 (stereo not shown) [Example 64, methyl 4-(((4-cyano-3-(1-naphthyl)phenyl)(1-methyl-1H-imidazol-5-yl)methoxy)methyl)benzoate hydrochloride] | –
99 | Cc1ccccc1-c1cc(C(OCc2ccc(C#N)cc2)c2cncn2C)ccc1C#N (stereo not shown) [Example 116, 5-(((4-cyanobenzyl)oxy)(1-methyl-1H-imidazol-5-yl)methyl)-2′-methyl(1,1′-biphenyl)-2-carbonitrile hydrochloride] | –
100 | Cn1cncc1CN(Cc1ccc(C#N)cc1)c1ccc(C#N)c(-c2cccc3ccccc23)c1 [Example 231, 4-((4-cyanobenzyl)((1-methyl-1H-imidazol-5-yl)methyl)amino)-2-(1-naphthyl)benzonitrile] | –
100 | COC(=O)c1ccc(CNC(c2ccc(C#N)c(-c3cccc4ccccc34)c2)c2cncn2C)cc1 (stereo not shown) [Example 38, methyl 4-((((4-cyano-3-(1-naphthyl)phenyl)(1-methyl-1H-imidazol-5-yl)methyl)amino)methyl)benzoate] | –
100 | Cn1cncc1C(NCc1ccc(C#N)c(Br)c1)c1ccc(C#N)c(-c2cccc3ccccc23)c1 (stereo not shown) [Example 33, 4-(((3-bromo-4-cyanobenzyl)amino)(1-methyl-1H-imidazol-5-yl)methyl)-2-(1-naphthyl)benzonitrile dihydrochloride] | –
100 | Cn1cncc1C(NCc1ccc(C#N)c(Cl)c1)c1ccc(C#N)c(-c2cccc3ccccc23)c1 (stereo not shown) [Example 35, 4-(((3-chloro4-cyanobenzyl)amino)(1-methyl-1H-imidazol-5-yl)methyl)-2-(1-naphthyl)benzonitrile dihydrochloride] | –
100 | Cn1cncc1C(NCc1ccc(Cl)cc1)c1ccc(C#N)c(-c2cccc3ccccc23)c1 (stereo not shown) [Example 42, 4-(((4-chlorobenzyl)amino)(1-methyl-1H-imidazol-5-yl)methyl)-2-(1-naphthyl)benzonitrile] | –
82 | Cn1cncc1C(OCc1ccc(C(=O)O)cc1)c1ccc(C#N)c(-c2cccc3cccnc23)c1 (stereo not shown) [Example 243, 4-(((4-cyano-3-(8-quinolinyl)phenyl)(1-methyl-1H-imidazol-5-yl)methoxy)methyl)benzoic acid dihydrochloride] | –
